Calls of active or inactive are those of the source. The rule behind the calls is not given here.
Columns and labels:
MUGMel1 [1] = assay: Induction of apoptosis in human MUGMel1 cells assessed as late apoptotic cells at IC50 concentration after 24 hrs by Annexin V/SYTOX Green based flow cytometric analysis (reference value: 1.18%); format: functional
MUGMel1 [2] = assay: Induction of apoptosis in human MUGMel1 cells assessed as viable cells at IC50 concentration after 6 hrs by Annexin V/SYTOX Green based flow cytometric analysis (reference value: 96.01%); format: functional
WM793 [3] = assay: Induction of apoptosis in human WM793 cells assessed as up regulation of NOXA protein expression at IC50 concentration after 24 hrs by Western blot analysis; format: functional, cell-based
WM164 [4] = assay: Induction of apoptosis in human WM164 cells assessed as effect on BAX mRNA expression at IC50 concentration after 6 to 24 hrs by RT-qPCR analysis; format: functional, cell-based
WM793 [5] = assay: Induction of apoptosis in human WM793 cells assessed as early apoptotic cells at IC50 concentration after 6 hrs by Annexin V/SYTOX Green based flow cytometric analysis (reference value: 2.77%); format: functional
[6] = Toxicity in NU(NCr)-Foxn1 mouse xenografted with WM164 assessed as weight loss at 1 to 4 ug/g administered for three consecutive days with 1 day interval for four cycle; conditions: in vivo
MUGMel1 [7] = assay: Cytotoxicity against human MUGMel1 cells assessed as reduction in cell viability after 72 hrs by EZ4U reagent based spectrophotometric method; format: functional; conditions: MUGMel1, 72 h
SBcl2 [8] = assay: Cytotoxicity against human SBcl2 cells harboring NRAS Q61I mutant assessed as reduction in cell viability after 24 hrs by EZ4U reagent based spectrophotometric method; format: functional; conditions: SBcl2, 24 h
WM793 [9] = assay: Induction of apoptosis in human WM793 cells assessed as necrotic cells at IC50 concentration after 6 hrs by Annexin V/SYTOX Green based flow cytometric analysis (reference value: 0.32%); format: functional
WM164 [10] = assay: Induction of apoptosis in human WM164 cells treated with scrambled si-RNA assessed as up regulation of NOXA protein expression at IC50 concentration after 24 hrs by Western blot analysis; format: functional, cell-based
MUGMel1 [11] = assay: Induction of apoptosis in human MUGMel1 cells assessed as up regulation of PUMA at IC50 concentration after 6 to 24 hrs by RT-qPCR analysis; format: functional, cell-based
SBcl2 [12] = assay: Induction of apoptosis in human SBcl2 cells assessed as up regulation of PMAIP1 at IC50 concentration after 24 hrs by mRNA sequencing method relative to control; format: functional
WM164 [13] = assay: Induction of apoptosis in human WM164 cells assessed as effect on BAD protein expression at IC50 concentration after 24 hrs by Western blot analysis; format: functional, cell-based
WM793 [14] = assay: Induction of apoptosis in human WM793 cells assessed as early apoptotic cells at IC50 concentration after 24 hrs by Annexin V/SYTOX Green based flow cytometric analysis (reference value: 2.64%); format: functional
WM164 [15] = assay: Antitumour activity against human WM164 cells xenografted in NU(NCr)-Foxn1 mouse assessed as increase in necrotic cells at 1 to 4 ug/g administered for three consecutive days with 1 day interval for four cycle by hematoxylin and eosin staining based microscopic analysis; format: functional
WM793 [16] = assay: Induction of apoptosis in human WM793 cells assessed as effect on BAD mRNA expression at IC50 concentration after 6 to 24 hrs by RT-qPCR analysis; format: functional, cell-based
WM164 [17] = assay: Cytotoxicity against human WM164 cells harboring BRAF V600E mutant assessed as reduction in cell viability after 24 hrs by EZ4U reagent based spectrophotometric method; format: functional; conditions: WM164, 24 h
MUGMel2 [18] = assay: Induction of apoptosis in human MUGMel2 cells assessed as up regulation of NOXA at IC50 concentration after 6 to 24 hrs by RT-qPCR analysis relative to control; format: functional
WM164 [19] = assay: Induction of apoptosis in human WM164 cells treated with scrambled si-RNA assessed as caspase -activity at IC50 concentration after 24 hrs by Western blot analysis; format: functional, cell-based
MUGMel1 [20] = assay: Induction of apoptosis in human MUGMel1 cells assessed as increase in caspase -3 activity at IC50 concentration after 24 hrs by Alexa Fluor 647 antibody based flow cytometric analysis; format: functional, cell-based
MUGMel2 [21] = assay: Cytotoxicity against human MUGMel2 cells harboring NRAS pQ61K mutant assessed as reduction in cell viability after 48 hrs by EZ4U reagent based spectrophotometric method; format: functional; conditions: MUGMel2, 48 h
WM793 [22] = assay: Induction of apoptosis in human WM793 cells assessed as late apoptotic cells at IC50 concentration after 6 hrs by Annexin V/SYTOX Green based flow cytometric analysis (reference value: 0.71%); format: functional
MUGMel2 [23] = assay: Induction of apoptosis in human MUGMel2 cells assessed as viable cells at IC50 concentration after 24 hrs by Annexin V/SYTOX Green based flow cytometric analysis (reference value: 85.95%); format: functional
MUGMel2 [24] = assay: Induction of apoptosis in human MUGMel2 cells assessed as late apoptotic cells at IC50 concentration after 24 hrs by Annexin V/SYTOX Green based flow cytometric analysis (reference value: 9.64%); format: functional
MRC5 [25] = assay: Cytotoxicity against human MRC5 cells assessed as reduction in cell viability after 24 hrs by EZ4U reagent based spectrophotometric method; format: functional; conditions: MRC5, 24 h
WM164 [26] = assay: Antitumour activity against human WM164 cells xenografted in NU(NCr)-Foxn1 mouse assessed as increase in fibrosis at 1 to 4 ug/g administered for three consecutive days with 1 day interval for four cycle by hematoxylin and eosin staining based microscopic analysis; format: functional, cell-based
MRC5 [27] = assay: Cytotoxicity against human MRC5 cells assessed as reduction in cell viability after 48 hrs by EZ4U reagent based spectrophotometric method; format: functional
WM793 [28] = assay: Cytotoxicity against human WM793 cells harboring BRAF V600E mutant assessed as reduction in cell viability after 24 hrs by EZ4U reagent based spectrophotometric method; format: functional; conditions: WM793, 24 h
WM164 [29] = assay: Induction of apoptosis in human WM164 cells assessed as viable cells at IC50 concentration after 6 hrs by Annexin V/SYTOX Green based flow cytometric analysis (reference value: 94.77%); format: functional
MUGMel1 [30] = assay: Induction of apoptosis in human MUGMel1 cells assessed as effect on PUMA protein expression at IC50 concentration after 24 hrs by Western blot analysis; format: functional, cell-based
MUGMel2 [31] = assay: Induction of apoptosis in human MUGMel2 cells assessed as early apoptotic cells at IC50 concentration after 24 hrs by Annexin V/SYTOX Green based flow cytometric analysis (reference value: 3.31%); format: functional
MUGMel1 [32] = assay: Induction of apoptosis in human MUGMel1 cells assessed as up regulation of NOXA protein expression at IC50 concentration after 24 hrs by Western blot analysis; format: functional, cell-based
MUGMel1 [33] = assay: Induction of apoptosis in human MUGMel1 cells assessed as effect on BAX mRNA expression at IC50 concentration after 6 to 24 hrs by RT-qPCR analysis; format: functional, cell-based
SBcl2 [34] = assay: Antitumour activity against human SBcl2 cells xenografted in NU(NCr)-Foxn1 mouse assessed as increase in fibrosis at 2 ug/g administered for three consecutive days with 1 day interval for four cycle by hematoxylin and eosin staining based microscopic analysis; format: functional, cell-based
[35] = Toxicity in NU(NCr)-Foxn1 mouse xenografted with SBcl2 assessed as weight loss at 2 ug/g administered for three consecutive days with 1 day interval for four cycle; conditions: in vivo

## CC(C)=CC[C@@H](OC(=O)C=C(C)C)C1=CC(=O)c2c(O)ccc(O)c2C1=O [DIMETHYLACRYLSHIKONIN]
MUGMel1 [1]
  Activity: 10.11%
MUGMel1 [2]
  Activity: 94.02%
WM793 [3]
  Activity: inactive
WM164 [4]
  Activity: inactive
WM793 [5]
  Activity: 8.45%
[6]
  Activity: Non-Toxic
MUGMel1 [7]
  IC50: 1000 nM
SBcl2 [8]
  IC50: 1900 nM
WM793 [9]
  Activity: 0.3%
WM164 [10]
  Activity: Active
MUGMel1 [11]
  Activity: Active
SBcl2 [12]
  fold change (FC): 1.37
WM164 [13]
  Activity: inactive
WM793 [14]
  Activity: 13.71%
WM164 [15]
  Activity: 60%
WM793 [16]
  Activity: inactive
WM164 [17]
  IC50: 3800 nM
MUGMel2 [18]
  fold change (FC): 6
WM164 [19]
  Activity: inactive
MUGMel1 [20]
  Activity: Active
MUGMel2 [21]
  IC50: 2300 nM
WM793 [22]
  Activity: 5.72%
MUGMel2 [23]
  Activity: 45.04%
MUGMel2 [24]
  Activity: 43.89%
MRC5 [25]
  IC50: 9500 nM
WM164 [26]
  Activity: Active
MRC5 [27]
  IC50: Not Active
WM793 [28]
  IC50: 1200 nM
WM164 [29]
  Activity: 88.63%
MUGMel1 [30]
  Activity: inactive
MUGMel2 [31]
  Activity: 10.92%
MUGMel1 [32]
  Activity: Active
MUGMel1 [33]
  Activity: inactive
SBcl2 [34]
  Activity: Active
[35]
  Activity: Non-Toxic

Source: ChEMBL document CHEMBL4602659, “β,β-Dimethylacrylshikonin Induces Apoptosis in Melanoma Cell Lines by NOXA Upregulation” (J Nat Prod, 2020)
